Experimental data from patent publication US11192913B2, “C-glycoside amine derivatives and methods of making” (The United States of America, as Represented by the …, priority 2020, dated 2021).
In brackets after ≈: the same amount, converted by molar mass. Read-outs that look alike come from different tables or passages of the source.

Columns and labels:
[1] = system: all gram positive organisms tested; conditions: against all gram positive organisms tested
Experimental: (§1) When surfactants are used in detergent formulations, antibiotic activity is an important trait. The antibiotic activity of the surfactants prepared from the saccharides glucose, maltose, and lactose, and 2-undecanone were measured against several microorganisms of interest in the food, human health, and agricultural areas. […] The CMC values for the β-C-glycoside 2-aminoundecanes were 0.1-5.5 mM.
(§2) Summary: β-C-glycoside ketone derivatives of saccharides glucose, lactose, and maltose were converted to amines via a reductive amination using 2 wt % Rh/HMS (Rh/C or Rh/Al2O3 can be used) in ammoniacal methanol under about 500 psi H2 (pressure can be about 350 psi). The amines were isolated and then these molecules were used as the amine in the reductive amination of 2-undecanone prepared from the seed oil of Cuphea. The resulting β-C-glycoside 2-aminoundecanes were characterized by MALDI-TOF mass spectrometry, 2D nmr, and CHN analyses. The detergency of the products was measured by fluorescence detection to measure the critical micelle concentration.

[2] = system: Escherichia coli; assay: Antimicrobial activity; format: cell-based; conditions: gram negative Escherichia
Experimental: as §1, §2

[3] = system: Envinia amylovora; assay: Antimicrobial activity; format: cell-based; conditions: gram negative Erwinia
Experimental: as §1, §2

[4] = system: Streptococcus mutans; conditions: Watanabe et al. 2000; cited from earlier work
[5] = system: B. cereus; conditions: Staron et al. 2018; cited from earlier work
[6] = system: Bacillus subtilis; conditions: Zhao et al. 2015; cited from earlier work
[7] = system: Escherichia coli; conditions: Zhao et al. 2015; cited from earlier work

`CCCCCCCCCC(C)NC(C)C[C@@H]1O[C@H](CO)[C@@H](O)[C@H](O)[C@H]1O` (some centres unmarked) [glucose derivative, Glucose C-glycoside 2-aminoundecane] gave a minimum bactericide concentration [1] of 620 µM (≈ 233 µg/mL), a minimum inhibitory concentration [1] of 310 µM (≈ 116 µg/mL) and an MIC [2] of 620 µM (≈ 233 µg/mL). The MIC [3] was 620 µM (≈ 233 µg/mL).
In the case of Galactose laurate, the MIC [4] is listed as 140 µM.
In the case of dodecanoyl lactose, the MIC [5] is given as 5900 µM.
For sucrose caprate, the MIC [6] is given as 2500 µM and the MIC [7] is given as 10000 µM.
